Laboratory results as given in US11344523B2, “Composition for use in treating rotavirus infection” (Devenish Nutrition Limited, priority 2016, dated 2022).

Experiments:
Porcine Rotavirus [1] = test: Virucidal effect on porcine rotavirus in primary pig kidney cells; assay type: cell-based; settings: total carboxylic acid concentration of 200 mM; for Result Replicate 2: controls PBS −5, ETHANOL −4; for Result Replicate 3: controls PBS −5, ETHANOL −5
Experimental: (§1) Carboxylic acids were obtained from David Garnett of Pathway Intermediates Ltd or from Sigma-Aldrich Co. LLC; and compositions were prepared in a Class II cabinet at room temperature in Hank's Balanced Salt Solution (Thermo Fisher Scientific Inc.) or ethanol by vortexing strongly to emulsify at a stock concentration of 1M. Stock concentrations were diluted to working concentrations e.g. of […] by serial dilution using Minimum Essential Medium (MEM) cell culture medium (Thermo Fisher Scientific Inc.) containing 2 mM L-Glutamine (Gibco Life Technologies Ltd.), and 100 μg/500 ml gentamycin (Lonza Group Ltd.).
A primary pig kidney (PPK) cell line was sourced from a kidney of a sacrificed piglet from the Agri-Food and Biosciences Institute (AFBI Hillsborough, UK). The kidney tissue was trypsinised to create a PPK cell line, which was maintained in Minimum Essential Medium (MEM) cell culture medium (Thermo Fisher Scientific Inc.) containing 2 mM L-Glutamine (Gibco Life Technologies Ltd.), 10% foetal calf serum (PAN-Biotech GmbH), and 100 μg/500 ml gentamycin (Lonza Group Ltd.).
(§2) In general, cells were seeded as at a density of 0.313e4-5.000e4 cells per 1 ml of cell suspension in growth medium, dispensed in to a SPL 24-Well Cell Culture Plate (SPL Life Sciences Co., Ltd.) in replicates of 3, each containing Academy Circular Cover Slips (Academy Science) and incubated overnight at 37° C. at 5% CO2. The growth medium was removed and replaced with 1 ml of Minimum Essential Medium (MEM) cell culture medium (Thermo Fisher Scientific Inc.) containing 2 mM L-Glutamine (Gibco Life Technologies Ltd.), and 100 μg/500 ml gentamycin (Lonza Group Ltd.) for treatment.
(§3) Porcine rotavirus was PROSYSTEM® ROTA PORCINE ROTAVIRUS VACCINE (Merck Animal Health).
Prior to treatment, the cells and coverslips were washed three times with Minimum Essential Medium (MEM) cell culture medium (Thermo Fisher Scientific Inc.) containing 2 mM L-Glutamine (Gibco Life Technologies Ltd.), and 100 μg/500 ml gentamycin (Lonza Group Ltd.). 100 μl of the virus at a titre of 10^9 TCID50/100 μl by the Reed-Muench method, and 100 μl of the treatment samples, were incubated for 30 mins at 37° C. at 5% CO2 The reaction was stopped by adding 800 μl of Minimum Essential Medium (MEM) cell culture medium (Thermo Fisher Scientific Inc.) containing 2 mM L-Glutamine (Gibco Life Technologies Ltd.), and 100 μg/500 ml gentamycin (Lonza Group Ltd.). Each treatment/virus was titrated out, initially 100 μl of each treatment was added to 900 μls of Minimum Essential Medium (MEM) cell culture medium (Thermo Fisher Scientific Inc.) containing 2 mM L-Glutamine (Gibco Life Technologies Ltd.), and 100 μg/500 ml gentamycin (Lonza Group Ltd.) to prepare a 10^−1 dilution. The 10^−1 dilution was then diluted in serial dilutions down to 10^−6 in the same medium 100 μl of media was then added to each appropriate well in replicates of 3 and incubated for 36 hours at 37° C. at 5% CO2 Ethanol or PBS were used as control treatments. Untreated cells were used as negative controls.
After incubation, coverslips were harvested. Each slip was harvested by lifting out of the medium with forceps then rinsing and fixing by dipping sequentially into glass universal bottles of PBS, acetone, and lastly acetone. The slip was then placed cells side up in a glass Petri dish of acetone in a Class II cabinet at room temperature for 10 minutes. […]

[2] = test system: porcine circovirus (PCV2); test: Virucidal effect on PCV2 in PK15A cells; assay type: cell-based, Porcine circovirus type 2; settings: at either 100 or 200 mM
[3] = test system: infectious bovine rhinotracheitis virus (IBRV); test: Virucidal effect on IBRV, virus/treatment titration read by immunofluorescence; assay type: cell-based, Infectious bovine rhinotracheitis virus (Bovine Herpes 1); settings: 100 mM
Experimental: as §1
MDBK cells were obtained from ECACC and were maintained in Minimum Essential Medium (MEM) cell culture medium (Thermo Fisher Scientific Inc.) containing 2 mM L-Glutamine (Gibco Life Technologies Ltd.), 10% foetal calf serum (PAN-Biotech GmbH), 100 μg/500 ml gentamycin (Lonza Group Ltd.), and 1% essential non essential amino acids (Sigma-Aldrich Co. LLC.).
(§4) In general, cells were seeded as at a density of 0.313e4-5.000e4 cells per 1 ml of cell suspension in growth medium, dispensed in to a SPL 24-Well Cell Culture Plate (SPL Life Sciences Co., Ltd.) in replicates of 3, each containing Academy Circular Cover Slips (Academy Science) and incubated overnight at 37° C. at 5% CO2. […]

[4] = test system: Porcine Respiratory and Reproductive Syndrome Virus (PRRSV); test: Virucidal effect on PRRSV, virus/treatment titration read by immunofluorescence; assay type: cell-based; settings: 200 mM
Experimental: as §1
MARC145 cells were obtained from the Centre of Cell Cultures, Istituto Zooprofilattico Sperimentale Brescia, Italy and were maintained in Minimum Essential Medium (MEM) cell culture medium (Thermo Fisher Scientific Inc.) containing 2 mM L-Glutamine (Gibco Life Technologies Ltd.), 10% foetal calf serum (PAN-Biotech GmbH), and 100 μg/500 ml gentamycin (Lonza Group Ltd.).
as §4

Porcine Rotavirus [5] = test: Virucidal effect on porcine rotavirus in MA104 cells; assay type: cell-based; settings: for Titre: incubation 30 mins, DMSO ✓, control titres ETOH −4, PBS −4
Experimental: as §1
MA104 cells were obtained from ECACC and were maintained in Minimum Essential Medium (MEM) cell culture medium (Thermo Fisher Scientific Inc.) containing 2 mM L-Glutamine (Gibco Life Technologies Ltd.), 10% foetal calf serum (PAN-Biotech GmbH), and 100 μg/500 ml gentamycin (Lonza Group Ltd.).
as §2, §3
Prior to treatment, the cells and coverslips were washed three times with Minimum Essential Medium (MEM) cell culture medium (Thermo Fisher Scientific Inc.) containing 2 mM L-Glutamine (Gibco Life Technologies Ltd.), and 100 μg/500 ml gentamycin (Lonza Group Ltd.). […]

Row | SMILES | Result Replicate 2 (Porcine Rotavirus [1]) | Result Replicate 3 (Porcine Rotavirus [1]) | susceptibility of virus to treatment [2] | reduction in titre [3] [log10] | reduction in titre [4] [log10] | reduction in titre (Porcine Rotavirus [5]; 200 mM) [log 10] | Titre (Porcine Rotavirus [5]; Expt 1, FA conc 100 mM) | Titre (Porcine Rotavirus [5]; Expt 2, FA conc 200 mM)
1 | CCCCCCCC(=O)O [Octanonic Acid/Caprylic C8 (1M), octanoic acid] | −2 | −1 |  |  |  |  |  | 
2 | CCCC(=O)O [Butyric Acid C4 (1M), Butyric Acid] | −ve | −ve |  |  |  |  |  | 
3 | CCCCCCCCCC(=O)O [Decanoic Acid/Capric C10 (1M), Decanoic Acid] | −1 | −ve |  |  |  |  |  | 
4 | CCCCCCCCCCCC(=O)O [Dodecanoic acid/Lauric C12 (1M), Dodecanoic acid] | −ve | −1 |  |  |  |  |  | 
5 | CCCC(=O)[O-].[Na+] [Treatment A, Sodium butyrate] |  |  | not susceptible | 4 | 3.5 | 2 | −4 | −2
